From PMC2396520, “Antibody Complementarity-Determining Regions (CDRs) Can Display Differential Antimicrobial, Antiviral and Antitumor Activities” (PLoS ONE, 2008) come the findings set out here.

Where a SMILES comes first, the peptide text is derived from it.

Test [1] relates to B16F10-Nex2 murine melanoma cells. It counts as cell-based. The conditions noted are these: for EC50: 12 h.
Experimental: Each peptide was tested in triplicate. After 12 h, the cytotoxic activities of the peptides were determined by measuring cell viability by Trypan Blue exclusion.
Another test concerns Candida albicans UP10. In kind it is cell-based. The note with it: for Anti-Candida activity (%) at 100 µg/mL: C7/pc42 H2 alanine-substituted derivatives, 37°C, 6 h, CFU assay, triplicate; for EC50: UP10, 6 h; for EC50asd/EC50H2: anti-Candida EC50 of the derivative relative to C7/pc42 H2.

Experimental for Candida albicans UP10: The alanine substituted derivatives (asd), defined according to the position held by the alanine-substituted aminoacid, were tested in the same biological assays to critically establish the functional relevance of each residue [5]. In vitro microbicidal activity of CDR peptides and selected asd against C. albicans UP 10 (clinical isolate from the fungi collection of the University of Parma) and C. albicans NCPF 3153 (National Collection of Pathogenic Fungi, Bristol, UK) were used for the in vitro experiments.
The microbicidal activity of synthetic CDRs against C. albicans strains was preliminarily evaluated by testing 100 µg/mL of each synthetic peptide by colony forming unit (CFU) assays as previously described [5]. Briefly, 10 µL of a distilled water suspension containing ∼5×10^4/mL germinating yeast cells were added to 90 µL of distilled water containing the synthetic peptide to be tested. Yeast suspensions were incubated at 37°C for 6 h. After incubation, the cell suspensions were plated on Sabouraud dextrose agar, incubated at 30°C and observed for CFU determination after 48–72 hours. Each assay was carried out in triplicate. […] EC50 was calculated by nonlinear regression analysis using Graph Pad Prism 4.01 software, San Diego, CA, USA.

A word on the EC50: it is the concentration giving half of the maximal effect. Lower therefore signals greater potency. In test [1], `CC[C@H](C)[C@H](NC(=O)[C@@H](N)Cc1ccc(O)cc1)C(=O)N[C@@H](CO)C(=O)N[C@@H](C)C(=O)N[C@@H](Cc1ccc(O)cc1)C(=O)N[C@@H](CC(N)=O)C(=O)NCC(=O)N[C@@H](C)C(=O)N[C@H](C(=O)N[C@@H](CO)C(=O)N[C@@H](Cc1ccc(O)cc1)C(=O)N[C@@H](CC(N)=O)C(=O)N[C@@H](CCC(N)=O)C(=O)N[C@@H](CCCCN)C(=O)N[C@@H](Cc1ccccc1)C(=O)N[C@@H](CCCCN)C(=O)O)[C@@H](C)O` [C4A] (H-YISAYNGATSYNQKFK-OH; N-terminus and C-terminus assumed) yielded an EC50 of 67.5 µM. Also, in the test with Candida albicans UP10, the “Anti-Candida activity (%) at 100 µg/mL” value came out at 94.51%, the EC50 came to 8.23 µM and the EC50asd/EC50H2 is on record as 1.96.

Compound `CC(C)C[C@H](NC(=O)[C@H](CC(C)C)NC(=O)[C@H](CO)NC(=O)[C@H](CCC(N)=O)NC(=O)[C@H](CO)NC(=O)[C@H](CO)NC(=O)[C@@H](N)CCCCN)C(=O)N[C@@H](CC(N)=O)C(=O)N[C@@H](CO)C(=O)NCC(=O)N[C@@H](CC(N)=O)C(=O)N[C@@H](CCC(N)=O)C(=O)N[C@@H](CCCCN)C(=O)N[C@@H](CC(N)=O)C(=O)N[C@@H](Cc1ccc(O)cc1)C(=O)N[C@@H](CC(C)C)C(=O)N[C@H](C(=O)O)[C@@H](C)O` [C7 L1] (H-KSSQSLLNSGNQKNYLT-OH) returned an EC50 with Candida albicans UP10 of 15.2 µM. This lies in the double-digit micromolar range.

For `N=C(N)NCCC[C@H](NC(=O)[C@H](CO)NC(=O)[C@H](CCCNC(=N)N)NC(=O)[C@@H]1CCCN1C(=O)[C@H](Cc1ccc(O)cc1)NC(=O)[C@H](CO)NC(=O)[C@H](Cc1ccc(O)cc1)NC(=O)[C@H](CC(=O)O)NC(=O)[C@@H](N)CC(N)=O)C(=O)O` [C7 L3] (H-NDYSYPRSR-OH), the midpoint of the response in the test on Candida albicans UP10, the EC50, lay at 20.2 µM. The EC50 values of the last two compounds are within 1.5-fold of each other.

The compound `CC[C@H](C)[C@H](NC(=O)[C@@H](N)Cc1ccc(O)cc1)C(=O)N[C@@H](CO)C(=O)N[C@@H](CS)C(=O)N[C@@H](Cc1ccc(O)cc1)C(=O)N[C@@H](CC(N)=O)C(=O)NCC(=O)N[C@@H](C)C(=O)N[C@H](C(=O)N[C@@H](CO)C(=O)N[C@@H](Cc1ccc(O)cc1)C(=O)N[C@@H](CC(N)=O)C(=O)N[C@@H](CCC(N)=O)C(=O)N[C@@H](CCCCN)C(=O)N[C@@H](C)C(=O)N[C@@H](CCCCN)C(=O)O)[C@@H](C)O` [F15A] (H-YISCYNGATSYNQKAK-OH; N-terminus and C-terminus assumed) yielded an EC50 in test [1] of 1000 µM. Moreover, in the test on Candida albicans UP10, the “Anti-Candida activity (%) at 100 µg/mL” value is recorded as 100.00%, the EC50 turned out to be 0.904 µM and the EC50asd/EC50H2 is on record as 0.22.

`CC[C@H](C)[C@H](NC(=O)[C@@H](N)Cc1ccc(O)cc1)C(=O)N[C@@H](CO)C(=O)N[C@@H](CS)C(=O)N[C@@H](Cc1ccc(O)cc1)C(=O)N[C@@H](CC(N)=O)C(=O)N[C@@H](C)C(=O)N[C@@H](C)C(=O)N[C@H](C(=O)N[C@@H](CO)C(=O)N[C@@H](Cc1ccc(O)cc1)C(=O)N[C@@H](CC(N)=O)C(=O)N[C@@H](CCC(N)=O)C(=O)N[C@@H](CCCCN)C(=O)N[C@@H](Cc1ccccc1)C(=O)N[C@@H](CCCCN)C(=O)O)[C@@H](C)O` [G7A] (H-YISCYNAATSYNQKFK-OH; N-terminus and C-terminus assumed) showed an EC50 in test [1] of 63.2 µM. For the same compound, in the test with Candida albicans UP10, the “Anti-Candida activity (%) at 100 µg/mL” value is listed as 100.00%, it took 7.31 µM to reach a half-maximal effect (EC50) and the EC50asd/EC50H2 worked out at 1.74.

In the test with Candida albicans UP10, `N=C(N)NCCC[C@H](NC(=O)[C@H](CCC(N)=O)NC(=O)[C@@H](N)CCC(N)=O)C(=O)N[C@@H](CO)C(=O)N[C@@H](CC(N)=O)C(=O)N[C@@H](Cc1c[nH]c2ccccc12)C(=O)N1CCC[C@H]1C(=O)N[C@@H](CCCNC(=N)N)C(=O)N[C@@H](CO)C(=O)O` [HuA L3] (H-QQRSNWPRS-OH) came in with a half-maximal effective concentration (EC50) of 5.11 µM. This counts as single-digit micromolar.

For the compound `C[C@H](NC(=O)CNC(=O)[C@H](CC(N)=O)NC(=O)[C@H](Cc1ccc(O)cc1)NC(=O)[C@H](CS)NC(=O)[C@H](CO)NC(=O)[C@H](C)NC(=O)[C@@H](N)Cc1ccc(O)cc1)C(=O)N[C@H](C(=O)N[C@@H](CO)C(=O)N[C@@H](Cc1ccc(O)cc1)C(=O)N[C@@H](CC(N)=O)C(=O)N[C@@H](CCC(N)=O)C(=O)N[C@@H](CCCCN)C(=O)N[C@@H](Cc1ccccc1)C(=O)N[C@@H](CCCCN)C(=O)O)[C@@H](C)O` [I2A] (H-YASCYNGATSYNQKFK-OH; N-terminus and C-terminus assumed), the EC50 in test [1] was 73.5 µM. In addition, in the test with Candida albicans UP10, the “Anti-Candida activity (%) at 100 µg/mL” value came out at 99.77%, the EC50 is 6.25 µM and the EC50asd/EC50H2 worked out at 1.49.

In test [1], `CC[C@H](C)[C@H](NC(=O)[C@@H](N)Cc1ccc(O)cc1)C(=O)N[C@@H](CO)C(=O)N[C@@H](CS)C(=O)N[C@@H](Cc1ccc(O)cc1)C(=O)N[C@@H](CC(N)=O)C(=O)NCC(=O)N[C@@H](C)C(=O)N[C@H](C(=O)N[C@@H](CO)C(=O)N[C@@H](Cc1ccc(O)cc1)C(=O)N[C@@H](CC(N)=O)C(=O)N[C@@H](CCC(N)=O)C(=O)N[C@@H](C)C(=O)N[C@@H](Cc1ccccc1)C(=O)N[C@@H](CCCCN)C(=O)O)[C@@H](C)O` [K14A] (H-YISCYNGATSYNQAFK-OH; N-terminus and C-terminus assumed) had an EC50 of 384 µM. Also, in the test on Candida albicans UP10, the “Anti-Candida activity (%) at 100 µg/mL” value was 91.72%, the EC50 was 18.5 µM and the EC50asd/EC50H2 is reported as 4.41.

In test [1], `CC[C@H](C)[C@H](NC(=O)[C@@H](N)Cc1ccc(O)cc1)C(=O)N[C@@H](CO)C(=O)N[C@@H](CS)C(=O)N[C@@H](Cc1ccc(O)cc1)C(=O)N[C@@H](CC(N)=O)C(=O)NCC(=O)N[C@@H](C)C(=O)N[C@H](C(=O)N[C@@H](CO)C(=O)N[C@@H](Cc1ccc(O)cc1)C(=O)N[C@@H](CC(N)=O)C(=O)N[C@@H](CCC(N)=O)C(=O)N[C@@H](CCCCN)C(=O)N[C@@H](Cc1ccccc1)C(=O)N[C@@H](C)C(=O)O)[C@@H](C)O` [K16A] (H-YISCYNGATSYNQKFA-OH; N-terminus and C-terminus assumed) showed an EC50 of 87 µM. In addition, in the test on Candida albicans UP10, the “Anti-Candida activity (%) at 100 µg/mL” value is 0%, the concentration giving a half-maximal response (EC50) turned out to be 161 µM and the EC50asd/EC50H2 was 38.35.

With `CSCC[C@H](NC(=O)[C@H](Cc1ccc(O)cc1)NC(=O)[C@H](CO)NC(=O)[C@H](Cc1ccc(O)cc1)NC(=O)CNC(=O)[C@H](CO)NC(=O)[C@@H](NC(=O)[C@H](CO)NC(=O)[C@@H](NC(=O)[C@H](CO)NC(=O)[C@H](CCCCN)NC(=O)[C@H](CO)NC(=O)[C@H](C)NC(=O)[C@H](CCCNC(=N)N)NC(=O)[C@@H](N)Cc1ccc(O)cc1)C(C)C)[C@@H](C)O)C(=O)N[C@@H](Cc1c[nH]cn1)C(=O)O` [pc42 L1] (H-YRASKSVSTSGYSYMH-OH), the EC50 in the test on Candida albicans UP10 came to 0.78 µM.

In the test with Candida albicans UP10, `CC(C)C[C@H](NC(=O)[C@H](CC(N)=O)NC(=O)[C@H](CO)NC(=O)[C@@H](NC(=O)[C@@H](N)CC(C)C)C(C)C)C(=O)N[C@@H](CCC(=O)O)C(=O)N[C@@H](CO)C(=O)O` [pc42 L2] (H-LVSNLES-OH) displayed an EC50 of 12 µM.

Take “SYNQKFK [C-terminal peptide of C7/pc42 H2]”: the “apoptotic activity in melanoma cells” value in test [1] (data not shown) is “not apoptotic by itself”.
